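At the GI50, growth is halved. TGI is the concentration that stops growth completely.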
How the values were obtained:
Assay in all cases: NCI tumour cell line growth inhibition, 384-well format
[1] = system: A498 renal
[2] = system: COLO 205 colon
[3] = system: MDA-MB-435 melanoma
[4] = system: OVCAR-4 ovarian
[5] = system: BT-549 breast
[6] = system: K-562 leukemia
[7] = system: MDA-MB-231 breast
[8] = system: HOP-62 NSCLC
[9] = system: HL-60(TB) leukemia
[10] = system: M14 melanoma
[11] = system: MOLT-4 leukemia
[12] = system: CCRF-CEM leukemia
[13] = system: DU-145 prostate
[14] = system: HCC-2998 colon
[15] = system: NCI-H226 lung
[16] = system: T-47D breast
[17] = system: SNB-75 CNS
[18] = system: SK-MEL-5 melanoma
[19] = system: NCI/ADR-RES ovarian
[20] = system: UACC-62 melanoma
[21] = system: UO-31 renal
[22] = system: SR leukemia
[23] = system: U251 glioblastoma
[24] = system: SNB-19 CNS
[25] = system: CAKI-1 renal
[26] = system: HCT-15 colon
[27] = system: LOX IMVI melanoma
[28] = system: TK-10 renal
[29] = system: MALME-3M melanoma
[30] = system: UACC-257 melanoma
[31] = system: NCI-H322M lung
[32] = system: SK-MEL-28 melanoma
[33] = system: NCI-H522 lung
[34] = system: OVCAR-3 ovarian
[35] = system: RPMI-8226 leukemia
[36] = system: SN12C renal
[37] = system: SF-268 CNS
[38] = system: KM12 colon
[39] = system: ACHN renal
[40] = system: 786-0 renal
[41] = system: HOP-92 NSCLC
[42] = system: A549 NSCLC
[43] = system: HT29 colon
[44] = system: EKVX NSCLC
[45] = system: MDA-MB-468 breast
[46] = system: SF-539 CNS
[47] = system: SW-620 colon
[48] = system: HS 578T breast
[49] = system: SF-295 CNS
[50] = system: RXF 393 renal
[51] = system: NCI-H460 NSCLC
[52] = system: OVCAR-5 ovarian
[53] = system: NCI-H23 lung
[54] = system: IGROV1 ovarian
[55] = system: OVCAR-8 ovarian
[56] = system: SK-OV-3 ovarian
[57] = system: MCF7 breast
[58] = system: PC-3 prostate
[59] = system: HCT-116 colon
[60] = system: SK-MEL-2 melanoma

Compound `COc1cc(CCc2cc(NC(=O)c3ccc(N4C[C@@H](C)N[C@@H](C)C4)cc3)n[nH]2)cc(OC)c1` has a GI50 [1] of 3.66 µM, a TGI [1] of 13.7 µM and a GI50 [2] of 2.31 µM. The TGI [2] was 5.36 µM, the GI50 [3] was 3.26 µM and the TGI [3] was 10.8 µM. The GI50 [4] was 6.69 µM, the TGI [4] was 19.7 µM and the GI50 [5] was 1.95 µM. For the same compound, the TGI [5] was 8.13 µM, the GI50 [6] was 2.5 µM and the TGI [6] was 4.83 µM. The GI50 [7] was 5.81 µM, the TGI [7] was 18.3 µM and the GI50 [8] was 5.65 µM. For the same compound, the TGI [8] was 17.3 µM, the GI50 [9] was 1.83 µM and the TGI [9] was 3.28 µM. It also gave a GI50 [10] of 1.71 µM, a TGI [10] of 3.35 µM and a GI50 [11] of 1.86 µM. It also gave a TGI [11] of 3.36 µM, a GI50 [12] of 2.33 µM and a TGI [12] of 4.13 µM. For the same compound, the GI50 [13] was 5.91 µM, the TGI [13] was 18 µM and the GI50 [14] was 3.82 µM. It also gave a TGI [14] of 12.8 µM, a GI50 [15] of 1.49 µM and a TGI [15] of 10.9 µM. For the same compound, the GI50 [16] was 11.1 µM, the TGI [16] was 23.2 µM and the GI50 [17] was 4.55 µM. For the same compound, the TGI [17] was 17.1 µM, the GI50 [18] was 1.59 µM and the TGI [18] was 2.95 µM. The GI50 [19] was 17.5 µM, the TGI [19] was 31.5 µM and the GI50 [20] was 3.07 µM. For the same compound, the TGI [20] was 10.7 µM, the GI50 [21] was 11.1 µM and the TGI [21] was 23.9 µM. It also gave a GI50 [22] of 1.8 µM, a TGI [22] of 3.21 µM and a GI50 [23] of 6.52 µM. It also gave a TGI [23] of 19 µM, a GI50 [24] of 15.3 µM and a TGI [24] of 28.8 µM. It also gave a GI50 [25] of 3.65 µM, a TGI [25] of 14 µM and a GI50 [26] of 3.39 µM. The TGI [26] was 11.2 µM, the GI50 [27] was 1.9 µM and the TGI [27] was 3.58 µM. It also gave a GI50 [28] of 11.8 µM, a TGI [28] of 24.2 µM and a GI50 [29] of 2.03 µM. The TGI [29] was 4.37 µM, the GI50 [30] was 1.53 µM and the TGI [30] was 2.9 µM. For the same compound, the GI50 [31] was 5.5 µM, the TGI [31] was 17.4 µM and the GI50 [32] was 2.33 µM. It also gave a TGI [32] of 5.37 µM, a GI50 [33] of 5.63 µM and a TGI [33] of 17.9 µM. It also gave a GI50 [34] of 11.9 µM, a TGI [34] of 24.3 µM and a GI50 [35] of 2.26 µM. For the same compound, the TGI [35] was 4.41 µM, the GI50 [36] was 2.54 µM and the TGI [36] was 10.1 µM. For the same compound, the GI50 [37] was 5.42 µM, the TGI [37] was 18.2 µM and the GI50 [38] was 0.0516 µM. It also gave a TGI [38] of 1.46 µM, a GI50 [39] of 4.46 µM and a TGI [39] of 15.9 µM. For the same compound, the GI50 [40] was 3.07 µM, the TGI [40] was 9.35 µM and the GI50 [41] was 3.61 µM. The TGI [41] was 15 µM, the GI50 [42] was 4.71 µM and the TGI [42] was 15.7 µM. For the same compound, the GI50 [43] was 1.85 µM, the TGI [43] was 3.72 µM and the GI50 [44] was 10.4 µM. For the same compound, the TGI [44] was 22.2 µM, the GI50 [45] was 3.46 µM and the TGI [45] was 6.61 µM. The GI50 [46] was 1.69 µM, the TGI [46] was 4.18 µM and the GI50 [47] was 4.21 µM. For the same compound, the TGI [47] was 15.3 µM, the GI50 [48] was 2.19 µM and the TGI [48] was 4.58 µM. It also gave a GI50 [49] of 4.91 µM, a TGI [49] of 15.5 µM and a GI50 [50] of 2.13 µM. For the same compound, the TGI [50] was 5.28 µM, the GI50 [51] was 3.39 µM and the TGI [51] was 10.9 µM. It also gave a GI50 [52] of 3.22 µM, a TGI [52] of 9.57 µM and a GI50 [53] of 2.42 µM. It also gave a TGI [53] of 6.77 µM, a GI50 [54] of 3.8 µM and a TGI [54] of 14 µM. For the same compound, the GI50 [55] was 9.65 µM, the TGI [55] was 21.5 µM and the GI50 [56] was 2.99 µM. The TGI [56] was 11 µM, the GI50 [57] was 3.06 µM and the TGI [57] was 10.9 µM. For the same compound, the GI50 [58] was 4.91 µM and the TGI [58] was 16.1 µM.

In the case of `Cn1cc(-c2ccc(=O)n(Cc3cccc(-c4ncc(OCCN5CCOCC5)cn4)c3)n2)cn1`, the GI50 [1] is reported as > 100 µM, the TGI [1] is reported as > 100 µM and the GI50 [2] is reported as > 100 µM. The TGI [2] was > 100 µM, the GI50 [3] was > 100 µM and the TGI [3] was > 100 µM. For the same compound, the GI50 [4] was 78.3 µM, the TGI [4] was > 100 µM and the GI50 [5] was 33.8 µM. The TGI [5] was > 100 µM, the GI50 [6] was 35.1 µM and the TGI [6] was > 100 µM. For the same compound, the GI50 [7] was > 100 µM, the TGI [7] was > 100 µM and the GI50 [8] was 23.7 µM. For the same compound, the TGI [8] was 98.6 µM, the GI50 [9] was 35.8 µM and the TGI [9] was 94.6 µM. For the same compound, the GI50 [10] was > 100 µM, the TGI [10] was > 100 µM and the GI50 [11] was 18.6 µM. For the same compound, the TGI [11] was 37.1 µM, the GI50 [12] was 21.6 µM and the TGI [12] was 57.4 µM. The GI50 [13] was > 100 µM, the TGI [13] was > 100 µM and the GI50 [14] was > 100 µM. For the same compound, the TGI [14] was > 100 µM, the GI50 [15] was 28.9 µM and the TGI [15] was > 100 µM. For the same compound, the GI50 [16] was 18.3 µM, the TGI [16] was 72.2 µM and the GI50 [17] was 98.9 µM. For the same compound, the TGI [17] was > 100 µM, the GI50 [18] was 16.5 µM and the TGI [18] was 36.8 µM. For the same compound, the GI50 [19] was 32.9 µM, the TGI [19] was > 100 µM and the GI50 [20] was > 100 µM. The TGI [20] was > 100 µM, the GI50 [21] was > 100 µM and the TGI [21] was > 100 µM. For the same compound, the GI50 [23] was 64.2 µM, the TGI [23] was > 100 µM and the GI50 [24] was > 100 µM. The TGI [24] was > 100 µM, the GI50 [25] was 82.5 µM and the TGI [25] was > 100 µM. For the same compound, the GI50 [26] was > 100 µM, the TGI [26] was > 100 µM and the GI50 [27] was 37.6 µM. The TGI [27] was > 100 µM, the GI50 [28] was > 100 µM and the TGI [28] was > 100 µM. The GI50 [29] was > 100 µM, the TGI [29] was > 100 µM and the GI50 [30] was 55.5 µM. The TGI [30] was > 100 µM, the GI50 [31] was > 100 µM and the TGI [31] was > 100 µM. The GI50 [32] was > 100 µM, the TGI [32] was > 100 µM and the GI50 [33] was 62.6 µM. The TGI [33] was > 100 µM, the GI50 [34] was > 100 µM and the TGI [34] was > 100 µM. For the same compound, the GI50 [35] was 24.9 µM, the TGI [35] was > 100 µM and the GI50 [36] was > 100 µM. The TGI [36] was > 100 µM, the GI50 [37] was > 100 µM and the TGI [37] was > 100 µM. The GI50 [38] was 66.1 µM, the TGI [38] was > 100 µM and the GI50 [39] was > 100 µM. The TGI [39] was > 100 µM, the GI50 [40] was > 100 µM and the TGI [40] was > 100 µM. For the same compound, the GI50 [41] was > 100 µM, the TGI [41] was > 100 µM and the GI50 [42] was > 100 µM. The TGI [42] was > 100 µM, the GI50 [43] was > 100 µM and the TGI [43] was > 100 µM. For the same compound, the GI50 [59] was 75.5 µM, the TGI [59] was > 100 µM and the GI50 [44] was 39.5 µM. The TGI [44] was > 100 µM, the GI50 [45] was 17.7 µM and the TGI [45] was 54.6 µM. The GI50 [46] was > 100 µM, the TGI [46] was > 100 µM and the GI50 [47] was > 100 µM. For the same compound, the TGI [47] was > 100 µM, the GI50 [48] was 97.8 µM and the TGI [48] was > 100 µM. For the same compound, the GI50 [49] was 71.2 µM, the TGI [49] was > 100 µM and the GI50 [50] was 56.6 µM. The TGI [50] was > 100 µM, the GI50 [51] was 72 µM and the TGI [51] was > 100 µM. For the same compound, the GI50 [60] was > 100 µM, the TGI [60] was > 100 µM and the GI50 [52] was > 100 µM. For the same compound, the TGI [52] was > 100 µM, the GI50 [53] was 14.5 µM and the TGI [53] was > 100 µM. The GI50 [54] was > 100 µM, the TGI [54] was > 100 µM and the GI50 [55] was 61.8 µM. The TGI [55] was > 100 µM, the GI50 [56] was > 100 µM and the TGI [56] was > 100 µM. For the same compound, the GI50 [57] was 48.6 µM, the TGI [57] was > 100 µM and the GI50 [58] was 67.8 µM. For the same compound, the TGI [58] was > 100 µM.

From PubChem BioAssay (NCI)
